From patent publication US9987254B2, “Ophthalmic composition for correcting presbyopia” (Eurocanarias Oftalmológica, S.L., priority 2013, dated 2018)

What was measured:
[1] = cited from earlier work
presbyopia = test: Study in presbyopia patients over 40 years old, non-dominant eye treated, single daily application; type: in vivo, human; conditions: bromfenac combined with pilocarpine
Excerpt: The study carried out by the present invention is based on a composition distinct from Dr. Benotzzi's, as well as on other selection criteria as regards patients, exclusively including patients over 40 years old with evident signs of clear presbyopia with a refractive defect among −0.50 of myopia and +0.75 of hyperopia with a maximum astigmatism of −0.75, in addition to their corresponding age-based presbyopia. Here, only those patients with the following characteristics were considered ideal candidates: an ACD (Anterior Chamber […] of the eye) greater than 2.5 mm, a White-to-White (horizontal diameter) greater than 11.4 mm and a value of photopic pupils higher than 3 mm. and of scotopic pupils lower than 6.5 mm, plus a correct convergence and binocularity and a density of the eye crystal lower than 25 measured with Pentacam. Additionally, only the non-dominant eye has been always treated, a situation that is not reflected in the studies of Dr. Benozzi, although we have evidence that recommends the use in both eyes. […]

[2] = test system: prostaglandin synthesis at the level of ciliary body and the iris; conditions: in vitro; cited from earlier work
[3] = after instillation on the ocular surface

Compound	concentrations in aqueous humor remained [1, 3]	measurable levels in the major ocular tissues [1, 3] [h]	passage through the human cornea ([1]; human cornea)	parasympathomimetic action of pilocarpine (presbyopia; compared with diclofenac of Dr. Benozzi's formula)	depth of focus of the treated eye (presbyopia; non-dominant eye treated)	inhibition of prostaglandin synthesis [2]
Nc1c(CC(=O)O)cccc1C(=O)c1ccc(Br)cc1 [bromfenac sodium sesquihydrate]	over 12 hours	≤ 24	efficiently pass through the human cornea	–	–	–
Nc1c(CC(=O)O)cccc1C(=O)c1ccc(Br)cc1 [bromfenac]	–	–	–	significantly extends	significant increase	inhibits prostaglandin synthesis
